Measured values taken from publication PMC12797170, “Potent Competitive Inhibitors of Ecto-5′-nucleotidase (CD73) based on 6‑(Het)aryl-7-deazapurine Ribonucleoside 5′‑O‑Bisphosphonates” (ACS Pharmacology & Translational Science, 2025).

Assays:
hERG potassium channel = hERG potassium channel (Homo sapiens, UniProt Q12809); experiment: hERG inhibition assay (thallium flux, HEK293-hERG cells); assay type: cell-based; details: for inhibition of hERG: at 100 μM
Procedure: The study was performed by Bienta (Enamine Biology Services). HEK293-hERG cells (stably expressing human potassium channel hERG – human Ether-a-go-go Related Gene) were cultured in DMEM/F-12 medium supplemented with 10% FBS, 100 U/mL penicillin, 100 μg/mL streptomycin, and 500 μg/mL G418. The assay was performed according to the manufacturer’s instructions. Cells were seeded into a 384-well poly-D-lysine, clear-bottom microtiter plate (8000 cells/well) in DMEM/F-12 medium supplemented with 5% FBS, 100 U/mL penicillin, 100 μg/mL streptomycin 24 h prior to assay. After 24 h of cell growth, the conditioned medium was substituted with the Dye Loading Solution comprising thallium-sensitive dye, followed by incubation for 1 h in a CO2 incubator. After the incubation, the Dye Loading Solution was substituted with a 15 μL/well mixture of the Assay Buffer and the TRS. Then, 5 μL of the test compound diluted in the assay buffer (0.5% DMSO final concentration) was added to each well of the plate and incubated at room temperature for 30 min hERG inhibition by test compounds was assessed at 3 concentrations of 10–50–100 μM. All test points were performed in quadruplicates. […] DMSO was used as a negative control, and Haloperidol was used as a reference compound to verify the assay validity. Haloperidol was dissolved in 100% DMSO at a concentration of 20 mM and stored at – 20 °C (for no more than a month). Haloperidol was assessed at the final concentrations ranging from 0.023 μM to 50.0 μM (8 points, 3-fold serial dilutions). The test compounds were dissolved in 100% DMSO at a concentration of 20 mM.

in vitro = details: human, plasma
[1] = Plasma protein binding, equilibrium dialysis, human plasma; assay type: in vitro ADME; details: undiluted plasma
[2] = biological target: T1, recombinant human CD73 (hCD73) (Homo sapiens, UniProt P21589); experiment: CD73 activity assay on recombinant human CD73; assay type: biochemical; details: ΔGexp = RT ln Ki
T1 sequence (P21589 27-574): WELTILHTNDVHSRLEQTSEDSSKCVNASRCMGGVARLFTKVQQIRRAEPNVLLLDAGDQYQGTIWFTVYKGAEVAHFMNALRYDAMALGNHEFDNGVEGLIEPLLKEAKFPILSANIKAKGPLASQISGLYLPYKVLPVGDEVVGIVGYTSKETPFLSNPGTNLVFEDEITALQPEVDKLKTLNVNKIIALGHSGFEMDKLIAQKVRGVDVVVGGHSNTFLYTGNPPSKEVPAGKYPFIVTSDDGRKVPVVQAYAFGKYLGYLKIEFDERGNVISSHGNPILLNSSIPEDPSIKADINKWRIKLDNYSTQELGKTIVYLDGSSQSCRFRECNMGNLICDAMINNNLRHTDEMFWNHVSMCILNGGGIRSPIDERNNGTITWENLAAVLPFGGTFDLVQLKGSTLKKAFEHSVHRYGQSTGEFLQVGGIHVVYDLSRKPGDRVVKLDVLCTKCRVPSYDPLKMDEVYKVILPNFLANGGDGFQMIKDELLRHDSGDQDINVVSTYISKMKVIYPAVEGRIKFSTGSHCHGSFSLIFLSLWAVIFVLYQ

[3] = Plasma protein binding, mouse plasma; assay type: in vitro ADME; details: mouse, plasma
[4] = test system: panel of CYP isoforms (1A2, 2C9, 2C19, 2D6, and 3A4); experiment: CYP450 inhibition, panel statement; assay type: biochemical, human; details: up to 50 μM
Procedure: The study was performed by Bienta (Enamine Biology Services). The potential for CYP450 inhibition (isoforms 1A2, 2C9, 2C19, 2D6, and 3A4) was assessed by performing in vitro inhibition studies using fluorogenic CYP450 substrates with the corresponding CYP450 enzymes and NADPH regeneration system (Vivid CYP450 Screening Kits) with some minor changes to the manufacturer’s protocols. The fluorescent signal produced from the reaction is directly proportional to the cytochrome P450 activity. In the cases when tested compounds interfere with the CYP450 enzyme–substrate reaction, the fluorescent signal decreases.
Briefly, the tested compounds were first dissolved in DMSO at 100× concentration (1 mM) and diluted in buffer to 2.5× concentration (25 μM). […] After 10 min of preincubation, the enzymatic reaction was initiated by the addition of a mix of NADPH and the appropriate CYP450 substrates. The plate was incubated for the desired reaction time (25 min for CYP1A2, CYP2C9, CYP2D6, and CYP3A4; 60 min for CYP2C19) after which Stop Reagent was added and fluorescence measured using SpectraMax Paradigm Multi-Mode Microplate Reader. All test points were performed in quadruplicates at a concentration of 10 μM (1% DMSO).

[5] = Microsomal stability assay, human liver microsomes; assay type: in vitro ADME; details: for Mics (hu) comp remaining 60 min: 10 μM; for microsomal CLint at 10 µM: pooled liver microsomes, pH 7.4, read-out: Mics (hu) CLint
[6] = Microsomal stability assay, mouse liver microsomes; assay type: in vitro ADME; details: for microsomal CLint at 10 µM: pooled liver microsomes, pH 7.4, read-out: Mics (m) CLint; for Mics (m) comp remaining 60 min: 10 μM
[7] = Tables 1 and 3, human plasma as printed in footnote, read-out: fup, fraction unbound in human plasma
[8] = human plasma protein binding, read-out: PPB (hu) (converted)
[9] = mouse plasma protein binding, read-out: PPB (m) (converted)
[10] = Tables 2 and 4, mouse plasma, read-out: fup, fraction unbound in mouse plasma

Chain of hERG potassium channel (Q12809 whole entry): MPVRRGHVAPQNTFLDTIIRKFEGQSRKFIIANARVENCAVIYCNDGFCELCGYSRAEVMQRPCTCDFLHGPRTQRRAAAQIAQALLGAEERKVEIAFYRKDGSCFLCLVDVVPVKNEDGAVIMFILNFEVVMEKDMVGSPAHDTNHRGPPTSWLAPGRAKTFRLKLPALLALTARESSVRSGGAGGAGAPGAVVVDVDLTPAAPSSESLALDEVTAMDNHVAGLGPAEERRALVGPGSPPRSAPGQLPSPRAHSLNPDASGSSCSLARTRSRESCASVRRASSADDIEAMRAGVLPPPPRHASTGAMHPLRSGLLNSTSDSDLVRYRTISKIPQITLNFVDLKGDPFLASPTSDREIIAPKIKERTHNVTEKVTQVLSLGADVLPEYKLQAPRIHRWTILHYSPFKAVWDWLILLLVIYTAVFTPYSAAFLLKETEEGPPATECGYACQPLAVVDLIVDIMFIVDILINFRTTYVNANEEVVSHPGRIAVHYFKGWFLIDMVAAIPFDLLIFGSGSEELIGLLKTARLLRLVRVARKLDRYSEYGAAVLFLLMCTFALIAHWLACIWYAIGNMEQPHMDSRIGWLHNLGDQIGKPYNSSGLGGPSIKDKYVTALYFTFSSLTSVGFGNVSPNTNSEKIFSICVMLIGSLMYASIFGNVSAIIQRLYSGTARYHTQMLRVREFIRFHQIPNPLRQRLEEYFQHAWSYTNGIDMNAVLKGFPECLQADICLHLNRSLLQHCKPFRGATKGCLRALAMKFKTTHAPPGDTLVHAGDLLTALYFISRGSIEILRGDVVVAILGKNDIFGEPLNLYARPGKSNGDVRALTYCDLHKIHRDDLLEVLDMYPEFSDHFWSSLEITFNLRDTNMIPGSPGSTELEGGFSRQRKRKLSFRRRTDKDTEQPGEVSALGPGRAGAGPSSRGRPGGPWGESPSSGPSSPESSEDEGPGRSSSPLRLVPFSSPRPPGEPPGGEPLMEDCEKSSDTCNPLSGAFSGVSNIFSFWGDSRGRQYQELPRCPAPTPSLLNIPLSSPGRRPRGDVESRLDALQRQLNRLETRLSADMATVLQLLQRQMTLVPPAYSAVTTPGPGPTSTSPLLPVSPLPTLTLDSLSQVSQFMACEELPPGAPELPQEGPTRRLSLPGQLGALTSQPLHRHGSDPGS

## O=P(O)(O)CP(=O)(O)OC[C@H]1O[C@@H](n2ccc3c(-c4ccc5ccccc5c4)ncnc32)[C@H](O)[C@@H]1O [4A.7]
hERG potassium channel
  hERG % inhibition at 100 µM: 1%
  inhibition of hERG: no inhibition
In vitro
  half-life at 10 µM: > 120 min
[1]; [7]
  fraction unbound at 4 h, 100 µM: 0.31
[1]; [8]
  fraction unbound at 4 h, 100 µM: 0.011
[2]
  dG_exp, experimental binding free energy: –13.4 kcal/mol
[3]; [9]
  fraction unbound at 4 h, 100 µM: 0.315
[4]
  inhibition of a panel of CYP isoforms: no inhibition

## O=P(O)(O)CP(=O)(O)OC[C@H]1O[C@@H](n2ccc3c(-c4cccc5ccncc45)ncnc32)[C@H](O)[C@@H]1O [4A.18]
hERG potassium channel
  hERG % inhibition at 100 µM: 6%
  inhibition of hERG: no inhibition
[5]
  Mics (hu) comp remaining 60 min: 105%
  microsomal CLint at 10 µM: < 1 µL/min/mg
In vitro
  half-life at 10 µM: > 120 min
[1]; [8]
  fraction unbound at 4 h, 100 µM: 0.195
[2]
  dG_exp, experimental binding free energy: –14.1 kcal/mol
[3]; [9]
  fraction unbound at 4 h, 100 µM: 0.727
[6]
  microsomal CLint at 10 µM: < 1 µL/min/mg
[4]
  inhibition of a panel of CYP isoforms: no inhibition

## O=P(O)(O)CP(=O)(O)OC[C@H]1O[C@@H](n2ccc3c(-c4cccc5c4CCCC5)nc(Cl)nc32)[C@H](O)[C@@H]1O [7B.12]
hERG potassium channel
  hERG % inhibition at 100 µM: 3%
  inhibition of hERG: no inhibition
[5]
  Mics (hu) comp remaining 60 min: 101%
  microsomal CLint at 10 µM: < 1 µL/min/mg
In vitro
  half-life at 10 µM: > 120 min
[1]; [8]
  fraction unbound at 4 h, 100 µM: 0.005
[2]
  dG_exp, experimental binding free energy: –15.9 kcal/mol
[3]; [10]
  fraction unbound at 4 h, 100 µM: 0.22
[3]; [9]
  fraction unbound at 4 h, 100 µM: 0.216
[6]
  Mics (m) comp remaining 60 min: 117%
  microsomal CLint at 10 µM: < 1 µL/min/mg
[4]
  inhibition of a panel of CYP isoforms: no inhibition

## O=P(O)(O)CP(=O)(O)OC[C@H]1O[C@@H](n2ccc3c(-c4ccc5c(c4)CCCC5)nc(Cl)nc32)[C@H](O)[C@@H]1O [7B.23]
hERG potassium channel
  hERG % inhibition at 100 µM: 5%
  inhibition of hERG: no inhibition
[5]
  Mics (hu) comp remaining 60 min: 124%
  microsomal CLint at 10 µM: < 1 µL/min/mg
In vitro
  half-life at 10 µM: > 120 min
[1]; [8]
  fraction unbound at 4 h, 100 µM: ≤ 0.01
[2]
  dG_exp, experimental binding free energy: –16.3 kcal/mol
[3]; [10]
  fraction unbound at 4 h, 100 µM: 0.06
[3]; [9]
  fraction unbound at 4 h, 100 µM: 0.059
[6]
  Mics (m) comp remaining 60 min: 123%
  microsomal CLint at 10 µM: < 1 µL/min/mg
[4]
  inhibition of a panel of CYP isoforms: no inhibition

## O=P(O)(O)CP(=O)(O)OC[C@H]1O[C@@H](n2ccc3c(-c4ccc(F)c5ccccc45)nc(Cl)nc32)[C@H](O)[C@@H]1O [7B.28]
hERG potassium channel
  hERG % inhibition at 100 µM: 6%
  inhibition of hERG: no inhibition
[5]
  Mics (hu) comp remaining 60 min: 95%
  microsomal CLint at 10 µM: 2 µL/min/mg
In vitro
  half-life at 10 µM: > 120 min
[1]; [8]
  fraction unbound at 4 h, 100 µM: ≤ 0.01
[2]
  dG_exp, experimental binding free energy: –16.6 kcal/mol
[3]; [10]
  fraction unbound at 4 h, 100 µM: 0.23
[3]; [9]
  fraction unbound at 4 h, 100 µM: 0.232
[6]
  Mics (m) comp remaining 60 min: 101%
  microsomal CLint at 10 µM: < 2 µL/min/mg
[4]
  inhibition of a panel of CYP isoforms: no inhibition

## Cc1nc(-c2cccc3ccccc23)c2ccn([C@@H]3O[C@H](COP(=O)(O)CP(=O)(O)O)[C@@H](O)[C@H]3O)c2n1 [18E.6]
hERG potassium channel
  hERG % inhibition at 100 µM: 2%
  inhibition of hERG: no inhibition
[5]
  Mics (hu) comp remaining 60 min: 98%
  microsomal CLint at 10 µM: 1 µL/min/mg
In vitro
  half-life at 10 µM: > 120 min
[1]; [8]
  fraction unbound at 4 h, 100 µM: 0.045
[2]
  dG_exp, experimental binding free energy: –13.9 kcal/mol
[3]; [10]
  fraction unbound at 4 h, 100 µM: 0.51
[3]; [9]
  fraction unbound at 4 h, 100 µM: 0.515
[6]
  Mics (m) comp remaining 60 min: 95%
  microsomal CLint at 10 µM: 1 µL/min/mg
[4]
  inhibition of a panel of CYP isoforms: no inhibition

## Cc1nc(-c2ccc3ccccc3c2)c2ccn([C@@H]3O[C@H](COP(=O)(O)CP(=O)(O)O)[C@@H](O)[C@H]3O)c2n1 [18E.7]
[5]
  Mics (hu) comp remaining 60 min: 86%
  microsomal CLint at 10 µM: 5 µL/min/mg
In vitro
  half-life at 10 µM: > 120 min
[1]; [8]
  fraction unbound at 4 h, 100 µM: 0.004
[2]
  dG_exp, experimental binding free energy: –14.6 kcal/mol
[3]; [10]
  fraction unbound at 4 h, 100 µM: 0.22
[3]; [9]
  fraction unbound at 4 h, 100 µM: 0.221
[6]
  Mics (m) comp remaining 60 min: 97%
  microsomal CLint at 10 µM: 1 µL/min/mg

## O=P(O)(O)CP(=O)(O)OC[C@H]1O[C@@H](n2ccc3c(-c4ccc5c(c4)CCCC5)nc(I)nc32)[C@H](O)[C@@H]1O [27H.23, [(5-{[2-Iodo-4-(5,6,7,8-tetrahydronaphthalen-2-yl)-7H-pyrrolo[2,3-d]pyrimidin-7-yl]-β-D-ribofuranosyl}oxy)phosphonomethyl]phosphonic Acid]
hERG potassium channel
  hERG % inhibition at 100 µM: 7%
  inhibition of hERG: no inhibition
[5]
  Mics (hu) comp remaining 60 min: 104%
  microsomal CLint at 10 µM: < 1 µL/min/mg
In vitro
  half-life at 10 µM: > 120 min
[1]; [7]
  fraction unbound at 4 h, 100 µM: 0.036
[1]; [8]
  fraction unbound at 4 h, 100 µM: ≤ 0.01
[2]
  dG_exp, experimental binding free energy: –16.1 kcal/mol
[3]; [9]
  fraction unbound at 4 h, 100 µM: 0.036
[6]
  microsomal CLint at 10 µM: 2 µL/min/mg
[4]
  inhibition of a panel of CYP isoforms: no inhibition
